*1 amine or outer side, *2 acyl side, *3 side chain or, on linkers, in order; H or OH if unused. Where a SMILES comes first, the peptide text is derived from it. Bridges are numbered along the chain shown (N, C = ends). [ ]: non-standard residue; d: D form. The star is where a group is joined. hPhe(3-Cl-4-CF3) = N[C@@H](CCc1ccc(C(F)(F)F)c(Cl)c1)C(=O)O; NPrPhe(4-CF3) = CCCN[C@@H](Cc1ccc(C(F)(F)F)cc1)C(=O)O; NMeGly(cPent) = CN[C@H](C(=O)O)C1CCCC1; NMeD = CN[C@@H](CC(=O)O)C(=O)O; NMeL = CN[C@@H](CC(C)C)C(=O)O; X20 = O=C(CN(CCF)[*:1])[*:2]; Morpholide = C1CN(*)CCO1; Ac5c = NC1(C(=O)O)CCCC1; Sar = CNCC(=O)O
Legend:
[1] = molecular target: GDP-bound NRAS wild-type protein (Homo sapiens, UniProt P01111); experiment: Binding to NRAS by surface plasmon resonance (SPR), KD and KD ratio to KRAS
Summary of the method: (§1)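 Affinity is measured by surface plasmon resonance at 30°C against captured, GDP-loaded RAS carrying a biotinylated Avi tag. Compounds are titrated by single-cycle kinetics, and KD comes from a 1:1 fit.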

HRAS wild-type protein = HRAS wild-type protein (Homo sapiens, UniProt P01112); experiment: Binding to HRAS by surface plasmon resonance (SPR), KD and KD ratio to KRAS
Summary of the method: as §1

[2] = test system: human lung cancer strain NCI-H441; assay type: cell-based
Summary of the method: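 Readout: […] after the ATP-based reagent. Compound: serial dilutions in dimethyl sulfoxide.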

[3] = ratio of the KD value with respect to GDP-bound NRAS wild-type protein to the KD value with respect to KRAS
[4] = ratio of the KD value with respect to HRAS wild-type protein to the KD value with respect to KRAS
[5] = ratio of KD for GDP-bound NRAS wild-type protein to KD for KRAS
[6] = ratio of KD for HRAS wild-type protein to KD for KRAS

HRAS wild-type protein, sequence (P01112 whole entry): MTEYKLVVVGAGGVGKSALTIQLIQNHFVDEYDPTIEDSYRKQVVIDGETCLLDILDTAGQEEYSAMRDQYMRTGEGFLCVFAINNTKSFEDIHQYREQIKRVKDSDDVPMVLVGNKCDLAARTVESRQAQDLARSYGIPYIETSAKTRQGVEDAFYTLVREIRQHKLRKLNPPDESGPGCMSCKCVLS
GDP-bound NRAS wild-type protein, sequence (P01111 whole entry): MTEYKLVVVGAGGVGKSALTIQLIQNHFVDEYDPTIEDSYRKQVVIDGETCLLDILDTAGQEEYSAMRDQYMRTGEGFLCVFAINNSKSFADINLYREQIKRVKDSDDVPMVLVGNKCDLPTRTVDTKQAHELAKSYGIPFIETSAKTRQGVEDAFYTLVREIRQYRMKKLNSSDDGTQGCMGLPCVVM

SMILES	NRAS /KRAS [1, 3]	HRAS /KRAS (HRAS wild-type protein; [4])	IC50 [2]	NRAS /KRAS [1, 5]	HRAS /KRAS (HRAS wild-type protein; [6])
CC[C@H](C)[C@@H]1NC(=O)[C@H](CC(C)C)N(C)C(=O)C[C@@H](C(=O)N(C)CC)N(C)C(=O)[C@H](C2CCCC2)N(C)C(=O)C2(CCC2)NC(=O)[C@@H]2C[C@@H](C)CN2C(=O)[C@H](CCc2ccc(C(F)(F)F)c(OC)c2)NC(=O)CN(C)C(=O)[C@H](Cc2ccc(C)cc2)N2CC/C=C\C[C@@H](C2=O)N(C)C(=O)CN(C)C1=O [PP1907]	AA (a compound having 20 or more is denoted as AA)	A (a compound having 10 or more and less than 20 is denoted as A)	23.6 nM		
CCC[C@H]1C(=O)N[C@@H]([C@@H](C)CC)C(=O)N2CCC[C@H]2C(=O)N(C)[C@H]2C/C=C\CCN(C2=O)[C@@H](Cc2ccc(C(F)(F)F)cc2)C(=O)N(C)CC(=O)N[C@@H](CCc2ccc(C(F)(F)F)c(OC)c2)C(=O)N2C[C@H](OCC)C[C@H]2C(=O)N(C)C2(CCC2)C(=O)N(C)[C@@H](C2CCCC2)C(=O)N(C)[C@H](C(=O)N2CCCC2)CC(=O)N1C [PP3101]			4.9 nM	A (a compound having 10 or more and less than 20 is denoted as A)	A (a compound having 10 or more and less than 20 is denoted as A)
CCCN1C(=O)CN(C)C(=O)CN(CCF)C(=O)[C@H]([C@@H](C)CC)NC(=O)[C@H](CC(C)C)N(C)C(=O)C[C@@H](C(=O)N2CCOCC2)N(C)C(=O)[C@H](C2CCCC2)N(C)C(=O)C2(CCCC2)NC(=O)[C@@H]2CCCN2C(=O)[C@H](CCc2ccc(C(F)(F)F)c(Cl)c2)NC(=O)CN(C)C(=O)[C@@H]1Cc1ccc(C(F)(F)F)cc1 [PP0751] ([NMeL]I[X20][Sar][NPrPhe(4-CF3)][Sar][hPhe(3-Cl-4-CF3)]P[Ac5c][NMeGly(cPent)][NMeD]-Morpholide; lactam N-11)	B (a compound having 3 or more and less than 10 is denoted as B)	C (A compound having a KD ratio of 0.1 or more and less than 3 is denoted as C)	25.5 nM		
CC[C@H](C)[C@@H]1NC(=O)[C@H](C2CC2)N(C)C(=O)C[C@@H](C(=O)N(C)CC)N(C)C(=O)[C@H](C2CCCC2)N(C)C(=O)C2(CCC2)NC(=O)[C@@H]2C[C@H](C)CN2C(=O)[C@H](CCc2ccc(C(F)(F)F)c(OC)c2)NC(=O)CN(C)C(=O)[C@H](Cc2ccc(C(F)(F)F)cc2)N2CC/C=C\C[C@@H](C2=O)N(C)C(=O)CN(C)C1=O [PP2069]	AA (a compound having 20 or more is denoted as AA)	A (a compound having 10 or more and less than 20 is denoted as A)	27.4 nM		
CC[C@H](C)[C@@H]1NC(=O)[C@H](CC(F)F)N(C)C(=O)C[C@@H](C(=O)N(C)CC)N(C)C(=O)[C@H](C2CCCC2)N(C)C(=O)C2(CC(C)(C)C2)NC(=O)[C@@H]2C[C@H](C)CN2C(=O)[C@H](CCc2ccc(C(F)(F)F)c(Cl)c2)NC(=O)CN(C)C(=O)[C@H](Cc2ccc(C)cc2)N2CC/C=C\C[C@@H](C2=O)N(C)C(=O)CN(C)C1=O [PP1911]	A (a compound having 10 or more and less than 20 is denoted as A)	A (a compound having 10 or more and less than 20 is denoted as A)	11.7 nM		
CCO[C@@H]1CCN2C(=O)[C@H](CCc3cc(F)c(C(F)(F)F)c(F)c3)NC(=O)CN(C)C(=O)[C@H](Cc3ccc(C(F)(F)F)cc3)N3CCCC[C@@H](C3=O)N(C)C(=O)CN(C)C(=O)[C@H]([C@@H](C)CC)NC(=O)[C@H](CC(C)C)N(C)C(=O)C[C@@H](C(=O)N3CCOCC3)N(C)C(=O)[C@H](C3CCCC3)N(C)C(=O)C3(CCC3)NC(=O)[C@H]12 [PP1079]			27.2 nM	B (a compound having 3 or more and less than 10 is denoted as B)	B (a compound having 3 or more and less than 10 is denoted as B)
